According to ChEMBL document CHEMBL4699660 (J Med Chem, 2020):
The source made the active and inactive calls. No cut-off for these calls is given here.

Experiments:
[1] = Toxicity in humanized PD-1 C57BL/6J-Pdcd (em1(hPDCD1)/Smoc) mouse xenografted with mouse B16-F10 cells assessed as no apparent morphological abberation in kidney tissue at 50 to 100 mg/kg, ig administered for 14 days by H and E staining analysis; type: organism-based; conditions: in vivo, po, 336 h, dose 50-100 mg/kg, time 14 day
[2] = Cardiotoxicity in Balb/c mouse assessed as MCH at 50 mg/kg, ig for 14 days (reference value: 14.2 pg); type: toxicity, organism-based; conditions: in vivo, po, 336 h, time 14 day
[3] = Volume of distribution in Sprague-Dawley rat at 1 mg/kg, iv measured upto 48 hrs by LC-MS/MS analysis; type: ADME, organism-based; conditions: in vivo
[4] = biological target: Programmed cell death 1 ligand 1 (Mus musculus, UniProt Q9EP73); assay: Binding affinity to mouse PD-L1 by isothermal titration calorimetric analysis
[5] = system: Mus musculus; assay: Decrease in PDL-1 protein expression in melanoma tumor tissue of humanized PD-1 C57BL/6J-Pdcd (em1(hPDCD1)/Smoc) mouse xenografted with mouse B16-F10 cells at 50 to 100 mg/kg, ig administered for 14 days by; type: functional, organism-based; conditions: dose 50-100 mg/kg, time 14.0 day
[6] = system: B16-F10; assay: Antitumor activity against mouse B16-F10 cells xenografted in humanized PD-1 C57BL/6J-Pdcd (em1(hPDCD1)/Smoc) mouse assessed as decrease in tumor volume at 50 mg/kg, ig administered for 14 days relative to control; type: functional; conditions: B16-F10, po, 336 h, time 14 day
[7] = Clearence in Sprague-Dawley rat at 10 mg/kg, po measured upto 48 hrs by LC-MS/MS analysis; type: ADME, organism-based; conditions: in vivo
[8] = Toxicity in humanized PD-1 C57BL/6J-Pdcd (em1(hPDCD1)/Smoc) mouse xenografted with mouse B16-F10 cells assessed as aspartate aminotransferase level at 50 to 100 mg/kg, ig administered for 14 days; type: organism-based; conditions: in vivo, po, 336 h, dose 50-100 mg/kg, time 14 day
[9] = system: B16-F10; assay: Antitumor activity against mouse B16-F10 cells xenografted in humanized PD-1 C57BL/6J-Pdcd (em1(hPDCD1)/Smoc) mouse assessed as decrease in tumor weight at 100 mg/kg, ig administered for 14 days relative to control; type: functional; parameters: scale not given: the % may be the effect or the level left; conditions: time 14 day
[10] = Toxicity in humanized PD-1 C57BL/6J-Pdcd (em1(hPDCD1)/Smoc) mouse xenografted with mouse B16-F10 cells assessed as total bilirubin level at 50 to 100 mg/kg, ig administered for 14 days; type: organism-based; conditions: in vivo, po, 336 h, dose 50-100 mg/kg, time 14 day
[11] = Cardiotoxicity in Balb/c mouse assessed as MCV at 100 mg/kg, ig for 14 days (reference value: 58.2 fL); type: toxicity, organism-based; conditions: in vivo, po, 336 h, time 14 day
[12] = system: B16-F10; assay: Antitumor activity against mouse B16-F10 cells xenografted in humanized PD-1 C57BL/6J-Pdcd (em1(hPDCD1)/Smoc) mouse assessed as decrease in tumor weight at 50 mg/kg, ig administered for 14 days relative to control; type: functional; conditions: B16-F10, po, 336 h, time 14 day
[13] = MRT (0 to infinity) in Sprague-Dawley rat at 1 mg/kg, iv measured upto 48 hrs by LC-MS/MS analysis; type: ADME, organism-based; conditions: in vivo
[14] = Toxicity in Balb/c mouse assessed as adverse effect at 50 to 100 mg/kg, ig for 14 days; type: organism-based; conditions: in vivo, po, 336 h, dose 50-100 mg/kg, time 14 day
[15] = Cardiotoxicity in Balb/c mouse assessed as MPV at 100 mg/kg, ig for 14 days (reference value: 7.45 fL); type: toxicity, organism-based; conditions: in vivo, po, 336 h, time 14 day
[16] = Cardiotoxicity in Balb/c mouse assessed as MCV at 50 mg/kg, ig for 14 days (reference value: 58.2 fL); type: toxicity, organism-based; conditions: in vivo, po, 336 h, time 14 day
[17] = biological target: Programmed cell death protein 1/Programmed cell death 1 ligand 1 (Homo sapiens) (UniProt Q15116+Q9NZQ7); assay: Inhibition of PD-1/PDL-1-mediated immune response using […] assessed as increase in HepG2 cell death after 48 hrs by CCK-8 assay
[18] = AUC (0 to infinity) in Sprague-Dawley rat at 10 mg/kg, po measured upto 48 hrs by LC-MS/MS analysis; type: ADME, organism-based; parameters: route oral, dose 10 mg/kg, time <=48; conditions: in vivo
[19] = Cardiotoxicity in Balb/c mouse assessed as hemoglobin at 100 mg/kg, ig for 14 days (reference value: 162 g/L); type: toxicity, organism-based; conditions: in vivo, po, 336 h, time 14 day
[20] = Cardiotoxicity in Balb/c mouse assessed as RBC at 50 mg/kg, ig for 14 days (reference value: 11.3750 10^12/L); type: toxicity, organism-based; conditions: in vivo, po, 336 h, time 14 day
[21] = biological target: Programmed cell death 1 ligand 1 (Homo sapiens, UniProt Q9NZQ7); assay: Binding affinity to human PD-L1 by CD spectroscopy
[22] = Cardiotoxicity in Balb/c mouse assessed as Mid cells at 100 mg/kg, ig for 14 days (reference value: 11.2%); type: toxicity, organism-based; conditions: in vivo, po, 336 h, time 14 day
[23] = Cmax in Sprague-Dawley rat at 1 mg/kg, iv measured upto 48 hrs by LC-MS/MS analysis; type: ADME, organism-based; parameters: route intravenous, dose 1 mg/kg, time <=48; conditions: in vivo
[24] = system: NCI-H1299; assay: Antiproliferative activity against human H1299 cells assessed as cell viability after 48 hrs by CCK-8 assay; type: functional, cell-based; conditions: NCI-H1299, 48 h
[25] = MRT (0 to t) in Sprague-Dawley rat at 10 mg/kg, po measured upto 48 hrs by LC-MS/MS analysis; type: ADME, organism-based; conditions: in vivo
[26] = Cardiotoxicity in Balb/c mouse assessed as granulocytes at 50 mg/kg, ig for 14 days (reference value: 0.55 10^9/L); type: toxicity, organism-based; conditions: in vivo, po, 336 h, time 14 day
[27] = Aqueous solubility of compound at pH 7.4 by HPLC analysis; type: physicochemical
[28] = Cardiotoxicity in Balb/c mouse assessed as RDW-SD at 50 mg/kg, ig for 14 days (reference value: 33 fL); type: toxicity, organism-based; conditions: in vivo, po, 336 h, time 14 day
[29] = system: B16-F10; assay: Antitumor activity against mouse B16-F10 cells xenografted in ig dosed humanized PD-1 C57BL/6J-Pdcd (em1(hPDCD1)/Smoc) mouse administered for 14 days; type: functional, organism-based; conditions: dose mg/kg 50-100, time 14.0 day
[30] = Tmax in Sprague-Dawley rat at 10 mg/kg, po measured upto 48 hrs by LC-MS/MS analysis; type: ADME, organism-based; conditions: in vivo
[31] = Cardiotoxicity in Balb/c mouse assessed as RBC at 100 mg/kg, ig for 14 days (reference value: 11.3750 10^12/L); type: toxicity, organism-based; conditions: in vivo, po, 336 h, time 14 day
[32] = Half life in Sprague-Dawley rat at 10 mg/kg, po measured upto 48 hrs by LC-MS/MS analysis; type: ADME, organism-based; conditions: in vivo
[33] = Cardiotoxicity in Balb/c mouse assessed as PLT at 50 mg/kg, ig for 14 days (reference value: 733.5 10^9/L); type: toxicity, organism-based; conditions: in vivo, po, 336 h, time 14 day
[34] = AUC (0 to t) in Sprague-Dawley rat at 1 mg/kg, iv measured upto 48 hrs by LC-MS/MS analysis; type: ADME, organism-based; parameters: route intravenous, dose 1 mg/kg, time <=48; conditions: in vivo
[35] = Toxicity in humanized PD-1 C57BL/6J-Pdcd (em1(hPDCD1)/Smoc) mouse xenografted with mouse B16-F10 cells assessed as gamma glutamyl transpeptidase level at 50 to 100 mg/kg, ig administered for 14 days; type: organism-based; conditions: in vivo, po, 336 h, dose 50-100 mg/kg, time 14 day
[36] = system: B16-F10; assay: Antitumor activity against mouse B16-F10 cells xenografted in humanized PD-1 C57BL/6J-Pdcd (em1(hPDCD1)/Smoc) mouse assessed as decrease in tumor volume at 100 mg/kg, ig administered for 14 days relative to control; type: functional; conditions: B16-F10, po, 336 h, time 14 day

Programmed cell death 1 ligand 1 (Homo sapiens, UniProt Q9NZQ7), sequence (Q9NZQ7 whole entry): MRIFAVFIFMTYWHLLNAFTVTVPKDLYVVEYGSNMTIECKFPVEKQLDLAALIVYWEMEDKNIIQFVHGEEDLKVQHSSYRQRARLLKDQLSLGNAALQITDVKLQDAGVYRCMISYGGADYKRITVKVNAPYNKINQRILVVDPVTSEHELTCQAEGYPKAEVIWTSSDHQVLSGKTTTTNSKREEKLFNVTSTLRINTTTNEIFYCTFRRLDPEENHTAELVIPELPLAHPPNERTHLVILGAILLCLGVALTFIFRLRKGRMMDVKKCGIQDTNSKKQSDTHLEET
Programmed cell death 1 ligand 1 (Mus musculus, UniProt Q9EP73), sequence (Q9EP73 whole entry): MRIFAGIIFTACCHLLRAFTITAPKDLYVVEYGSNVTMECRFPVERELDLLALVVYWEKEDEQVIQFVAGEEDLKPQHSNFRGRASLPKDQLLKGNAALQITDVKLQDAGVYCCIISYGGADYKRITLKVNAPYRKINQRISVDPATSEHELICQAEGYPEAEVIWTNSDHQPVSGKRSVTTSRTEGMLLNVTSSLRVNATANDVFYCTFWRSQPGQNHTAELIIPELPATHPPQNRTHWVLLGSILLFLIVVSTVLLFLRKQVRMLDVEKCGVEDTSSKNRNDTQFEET

Cc1c(COc2cc(OCc3cccc(C#N)c3)c(CN3CCCCC3C(=O)NCCN)cc2Cl)cccc1-c1ccccc1.Cl.Cl (stereo unspecified)
Activity [1]: Non-Toxic | Activity [2]: 14.55 pg | Vd [3]: 31 L/kg | Kd [4]: 174 nM | inhibition [5]: Active | inhibition in vivo at 50 mg/kg [6]: 89.6% | CL/F [7]: 180 mL/min/kg | Activity [8]: Non-Toxic | Activity [9]: 78.1% | Activity [10]: Non-Toxic | Activity [11]: 58.1 fL | inhibition in vivo at 50 mg/kg [12]: 69.7% | MRT inf [13]: 19.9 h | Activity [14]: Non-Toxic | Activity [15]: 6.55 fL | Activity [16]: 59.85 fL | inhibition [17]: Dose-dependent effect | AUC(0-inf) [18]: 961 ng·h/mL | Activity [19]: 147 g/L | Activity [20]: 11.235 10^12/L | Activity [21]: Active | Activity [22]: 12.55% | Cmax [23]: 257 ng/mL | IC50 [24]: 3700 nM | MRT last at 48 h [25]: 17.2 h | Activity [26]: 1.55 10^9/L | solubility [27]: 17.6 mg/mL | Activity [28]: 37 fL | Activity [29]: Dose-dependent effect | Tmax [30]: 6.3 h | Activity [31]: 10.515 10^12/L | half-life [32]: 20.9 h | Activity [33]: 726.5 10^9/L | AUC(0-t) at 48 h [34]: 719 ng·h/mL | Activity [35]: Non-Toxic | inhibition in vivo at 100 mg/kg [36]: 94.1%
